In publication PMC6099740, “Design, Synthesis and Biological Evaluation of 6,7-Disubstituted-4-phenoxyquinoline Derivatives Bearing Pyridazinone Moiety as c-Met Inhibitors” (Molecules : A Journal of Synthetic Chemistry and Natural …, 2018):

Assays:
c-Met kinase = c-Met kinase (Homo sapiens, UniProt P08581); assay: c-Met kinase inhibition assay (HTRF; mobility shift)
Protocol: All kinase assays were performed in 96-well plates in a 50 µL reaction volume. The kinase buffer contains 50 mM HEPES, pH 7.5, 10 mM MgCl2, 0.0015% Brij-35 and 2 mM DTT. The stop buffer contains 100 mM HEPES, pH 7.5, 0.015% Brij-35, 0.2% Coating Reagent 3 and 50 mM EDTA. Dilute the compounds to 500 µM by 100% DMSO, then transfer 10 µL of compound to a new 96-well plate as the intermediate plate, add 90 µL kinase buffer to each well. Transfer 5 µL of each well of the intermediate plate to 384-well plates. The following amounts of enzyme and substrate were used per well: kinase base buffer, FAM-labeled peptide, ATP and enzyme solution. Wells containing the substrate, enzyme, DMSO without compound were used as DMSO control. Wells containing just the substrate without enzyme were used as low control. Incubate at room temperature for 10 min. Add 10 µL peptide solution to each well. […] At last collect data on Caliper program and convert conversion values to inhibition values. Percent inhibition = (max − conversion)/(max − min) × 100. ‘max’ stands for DMSO control; ‘min’ stands for low control [20].

HepG2 cells = assay: MTT cytotoxicity assay, HepG2; assay type: cell-based; conditions: Homo sapiens, 72 h
Protocol: (§1) The results expressed as IC50 values were summarized in Table 1, and the values were the average of at least two independent experiments.
The cancer cell lines were cultured in minimum essential medium (MEM) supplement with 10% fetal bovine serum (FBS). Approximately 4 × 10^3 cells, suspended in MEM medium, were plated onto each well of a 96-well plate and incubated in 5% CO2 at 37 °C for 24 h. The test compounds at indicated final concentrations were added to the culture medium and the cell cultures were continued for 72 h. Fresh MTT was added to each well at a terminal concentration of 5 μg/mL and incubated with cells at 37 °C for 4 h. The formazan crystals were dissolved in 100 μL DMSO each well, and the absorbency at 492 nm (for absorbance of MTT formazan) and 630 nm (for the reference wavelength) was measured with the ELISA reader. All of the compounds were tested two times in each of the cell lines. The results expressed as inhibition rates or IC50 (half-maximal inhibitory concentration) were the averages of two determinations and calculated by using the Bacus Laboratories Incorporated Slide Scanner (Bliss) software (the Bacus Laboratories Inc. Slide Scanner (BLISS) system, Lombard, IL, USA)..

MCF-7 cells = assay: MTT cytotoxicity assay, MCF-7; assay type: cell-based; conditions: Homo sapiens, MCF7, 72 h
Protocol: as §1
(§2) The cancer cell lines were cultured in minimum essential medium (MEM) supplement with 10% fetal bovine serum (FBS). […] The test compounds at indicated final concentrations were added to the culture medium and the cell cultures were continued for 72 h. […] All of the compounds were tested two times in each of the cell lines. The results expressed as inhibition rates or IC50 (half-maximal inhibitory concentration) were the averages of two determinations and calculated by using the Bacus Laboratories Incorporated Slide Scanner (Bliss) software (the Bacus Laboratories Inc. Slide Scanner (BLISS) system, Lombard, IL, USA)..

A549 cells = assay: MTT cytotoxicity assay, A549; assay type: cell-based; conditions: Homo sapiens, 72 h
Protocol: as §1, §2

Sequence of c-Met kinase (P08581 25-1390): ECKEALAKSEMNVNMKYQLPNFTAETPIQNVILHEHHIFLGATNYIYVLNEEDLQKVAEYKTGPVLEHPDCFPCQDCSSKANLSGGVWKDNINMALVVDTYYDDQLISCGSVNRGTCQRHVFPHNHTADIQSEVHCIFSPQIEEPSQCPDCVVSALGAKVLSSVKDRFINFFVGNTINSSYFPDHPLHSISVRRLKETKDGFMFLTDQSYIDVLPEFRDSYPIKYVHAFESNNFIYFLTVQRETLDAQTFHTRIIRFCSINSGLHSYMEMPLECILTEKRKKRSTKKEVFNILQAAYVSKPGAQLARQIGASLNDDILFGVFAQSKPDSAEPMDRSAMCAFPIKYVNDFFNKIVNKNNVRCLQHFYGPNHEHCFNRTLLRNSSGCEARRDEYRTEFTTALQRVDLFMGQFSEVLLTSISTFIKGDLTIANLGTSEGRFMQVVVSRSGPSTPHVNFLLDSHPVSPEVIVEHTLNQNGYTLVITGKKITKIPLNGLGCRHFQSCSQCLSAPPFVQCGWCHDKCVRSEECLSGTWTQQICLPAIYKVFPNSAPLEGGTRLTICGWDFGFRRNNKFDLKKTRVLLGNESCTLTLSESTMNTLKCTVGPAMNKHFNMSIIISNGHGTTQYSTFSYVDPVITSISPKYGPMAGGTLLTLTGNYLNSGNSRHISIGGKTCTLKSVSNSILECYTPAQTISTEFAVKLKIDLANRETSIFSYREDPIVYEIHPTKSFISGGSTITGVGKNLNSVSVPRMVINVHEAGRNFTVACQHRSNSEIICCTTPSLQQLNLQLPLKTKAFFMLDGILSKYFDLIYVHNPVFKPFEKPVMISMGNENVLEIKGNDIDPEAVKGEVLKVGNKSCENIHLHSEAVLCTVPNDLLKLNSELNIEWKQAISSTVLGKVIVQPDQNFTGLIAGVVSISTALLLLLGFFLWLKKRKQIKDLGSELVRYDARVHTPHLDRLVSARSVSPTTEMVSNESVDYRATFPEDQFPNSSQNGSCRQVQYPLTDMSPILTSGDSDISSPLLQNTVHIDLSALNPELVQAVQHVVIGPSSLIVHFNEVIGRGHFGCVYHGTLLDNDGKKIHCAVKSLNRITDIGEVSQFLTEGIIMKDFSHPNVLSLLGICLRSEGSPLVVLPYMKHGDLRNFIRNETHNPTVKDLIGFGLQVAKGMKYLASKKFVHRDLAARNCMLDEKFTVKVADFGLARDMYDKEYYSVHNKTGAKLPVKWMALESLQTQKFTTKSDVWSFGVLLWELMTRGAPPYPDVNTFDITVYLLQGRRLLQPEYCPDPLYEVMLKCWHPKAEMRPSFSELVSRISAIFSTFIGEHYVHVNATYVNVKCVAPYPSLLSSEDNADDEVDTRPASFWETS

IC50 (c-Met kinase) | melting point | SMILES | IC50 (HepG2 cells) | IC50 (MCF-7 cells) | IC50 (A549 cells)
0.352 µM | 138.1 to 140.6 °C | COc1cc2c(Oc3ccc(NC(=O)c4nn(-c5ccc(F)c(Cl)c5)ccc4=O)cc3F)ccnc2cc1OCCCN1CCOCC1 [Compound 26, 1-(3-Chloro-4-fluorophenyl)-N-(3-fluoro-4-((6-methoxy-7-(3-morpholinopropoxy)quinolin-4-yl)oxy)phenyl)-4-oxo-1,4-dihydropyridazine-3-carboxamide] | > 50 µM | 5.96 ± 0.77 µM | 3.7 ± 0.57 µM
> 0.5 µM | 210.1 to 211.4 °C | COc1cc2c(Oc3ccc(NC(=O)c4nn(-c5ccc(F)cc5)ccc4=O)cc3F)ccnc2cc1OCCCN1CCC(C)CC1 [Compound 38, N-(3-Fluoro-4-((6-methoxy-7-(3-(4-methylpiperidin-1-yl)propoxy)quinolin-4-yl)oxy)phenyl)-1-(4-fluorophenyl)-4-oxo-1,4-dihydropyridazine-3-carboxamide] | 47.2 ± 1.67 µM | 22.5 ± 1.35 µM | 28.9 ± 1.46 µM
0.478 µM | 113.7 to 115.1 °C | COc1cc2c(Oc3ccc(NC(=O)c4nn(-c5ccc(Br)cc5F)ccc4=O)cc3F)ccnc2cc1OCCCN1CCOCC1 [Compound 27, 1-(4-Bromo-2-fluorophenyl)-N-(3-fluoro-4-((6-methoxy-7-(3-morpholinopropoxy)quinolin-4-yl)oxy)phenyl)-4-oxo-1,4-dihydropyridazine-3-carboxamide] | > 50 µM | > 50 µM | > 50 µM
0.039 µM |  | COc1cc2c(Oc3ccc(NC(=O)c4nn(-c5ccc(F)cc5)ccc4=O)cc3F)ccnc2cc1OCCCN1CCN(C)CC1 [Compound 46, N-(3-Fluoro-4-((6-methoxy-7-(3-(4-methylpiperazin-1-yl)propoxy)quinolin-4-yl)oxy)phenyl)-1-(4-fluorophenyl)-4-oxo-1,4-dihydropyridazine-3-carboxamide] | 7.51 ± 0.87 µM | 1.66 ± 0.22 µM | 1.64 ± 0.22 µM
0.123 µM |  | COc1cc2c(Oc3ccc(NC(=O)c4nn(-c5ccc(Br)cc5F)ccc4=O)cc3F)ccnc2cc1OCCCN1CCN(C)CC1 [Compound 51, 1-(4-Bromo-2-fluorophenyl)-N-(3-fluoro-4-((6-methoxy-7-(3-(4-methylpiperazin-1-yl)propoxy)quinolin-4-yl)oxy)phenyl)-4-oxo-1,4-dihydropyridazine-3-carboxamide] | 6.39 ± 0.81 µM | 5.43 ± 0.74 µM | 5.63 ± 0.75 µM
> 0.5 µM | 138.2 to 139.1 °C | COc1cc2c(Oc3ccc(NC(=O)c4nn(-c5ccc(Cl)cc5)ccc4=O)cc3F)ccnc2cc1OCCCN1CCOCC1 [Compound 23, 1-(4-Chlorophenyl)-N-(3-fluoro-4-((6-methoxy-7-(3-morpholinopropoxy)quinolin-4-yl)oxy)phenyl)-4-oxo-1,4-dihydropyridazine-3-carboxamide] | > 50 µM | > 50 µM | > 50 µM

The remaining lines, values behind:

SMILES | IC50 (c-Met kinase) | melting point | IC50 (HepG2 cells) | IC50 (MCF-7 cells) | IC50 (A549 cells)
COc1cc2c(Oc3ccc(NC(=O)c4nn(-c5ccc(Cl)c(C(F)(F)F)c5)ccc4=O)cc3F)ccnc2cc1OCCCN1CCC(C)CC1 [Compound 44, 1-(4-Chloro-3-(trifluoromethyl)phenyl)-N-(3-fluoro-4-((6-methoxy-7-(3-(4-methylpiperidin-1-yl)propoxy)quinolin-4-yl)oxy)phenyl)-4-oxo-1,4-dihydropyridazine-3-carboxamide] | 0.019 µM | 137.7 to 138.6 °C | 0.65 ± 0.05 µM | 5.96 ± 0.07 µM | 0.15 ± 0.03 µM
COc1cc2c(Oc3ccc(NC(=O)c4nn(-c5ccccc5)ccc4=O)cc3F)ccnc2cc1OCCCN1CCC(C)CC1 [Compound 45, N-(3-Fluoro-4-((6-methoxy-7-(3-(4-methylpiperidin-1-yl)propoxy)quinolin-4-yl)oxy)phenyl)-4-oxo-1-phenyl-1,4-dihydropyridazine-3-carboxamide] | 0.187 µM | 148.5 to 150.1 °C | 4.66 ± 0.67 µM | 2.01 ± 0.3 µM | 2.95 ± 0.47 µM
COc1cc2c(Oc3ccc(NC(=O)c4nn(-c5ccc(F)cc5)ccc4=O)cc3F)ccnc2cc1OCCCN1CCCCC1 [Compound 30, N-(3-Fluoro-4-((6-methoxy-7-(3-(piperidin-1-yl)propoxy)quinolin-4-yl)oxy)phenyl)-1-(4-fluorophenyl)-4-oxo-1,4-dihydropyridazine-3-carboxamide] | 0.017 µM | 149.4 to 151.1 °C | 0.99 ± 0.01 µM | 0.69 ± 0.02 µM | 0.31 ± 0.01 µM
COc1cc2c(Oc3ccc(NC(=O)c4nn(-c5ccccc5)ccc4=O)cc3F)ccnc2cc1OCCCN1CCOCC1 [Compound 29, N-(3-Fluoro-4-((6-methoxy-7-(3-morpholinopropoxy)quinolin-4-yl)oxy)phenyl)-4-oxo-1-phenyl-1,4-dihydropyridazine-3-carboxamide] | 0.016 µM | 118.7 to 119.8 °C | 2.27 ± 0.36 µM | 0.03 ± 0.01 µM | 0.2 ± 0.02 µM
COc1cc2c(Oc3ccc(NC(=O)c4nn(-c5ccc(Br)cc5)ccc4=O)cc3F)ccnc2cc1OCCCN1CCN(C)CC1 [Compound 48, 1-(4-Bromophenyl)-N-(3-fluoro-4-((6-methoxy-7-(3-(4-methylpiperazin-1-yl)propoxy)quinolin-4-yl)oxy)phenyl)-4-oxo-1,4-dihydropyridazine-3-carboxamide] | > 0.5 µM | 159.7 to 161.2 °C | > 50 µM | > 50 µM | > 50 µM
COc1cc2c(Oc3ccc(NC(=O)c4nn(-c5ccc(F)cc5)ccc4=O)cc3F)ccnc2cc1OCCCN1CCOCC1 [Compound 22] | 0.047 µM | 152.3 to 153.5 °C | 2.23 ± 0.35 µM | 0.21 ± 0.02 µM | 0.25 ± 0.01 µM
COc1cc2c(Oc3ccc(NC(=O)c4nn(-c5ccc(F)c(Cl)c5)ccc4=O)cc3F)ccnc2cc1OCCCN1CCN(C)CC1 [Compound 50, 1-(3-Chloro-4-fluorophenyl)-N-(3-fluoro-4-((6-methoxy-7-(3-(4-methylpiperazin-1-yl)propoxy)quinolin-4-yl)oxy)phenyl)-4-oxo-1,4-dihydropyridazine-3-carboxamide] | 0.002 µM |  | 2.46 ± 0.39 µM | 0.02 ± 0.01 µM | 0.02 ± 0.01 µM
COc1cc2c(Oc3ccc(NC(=O)c4nn(-c5ccc(Cl)c(C(F)(F)F)c5)ccc4=O)cc3F)ccnc2cc1OCCCN1CCOCC1 [Compound 28, 1-(4-Chloro-3-(trifluoromethyl)phenyl)-N-(3-fluoro-4-((6-methoxy-7-(3-morpholinopropoxy)quinolin-4-yl)oxy)phenyl)-4-oxo-1,4-dihydropyridazine-3-carboxamide] | 0.382 µM | 203.5 to 204.7 °C | > 50 µM | 7.49 ± 0.87 µM | 5.25 ± 0.72 µM
COc1ccc(-n2ccc(=O)c(C(=O)Nc3ccc(Oc4ccnc5cc(OCCCN6CCN(C)CC6)c(OC)cc45)c(F)c3)n2)cc1 [Compound 49, 1-(4-((l1-Oxidanyl)-l5-methyl)phenyl)-N-(3-fluoro-4-((6-methoxy-7-(3-(4-methylpiperazin-1-yl)propoxy)quinolin-4-yl)oxy)phenyl)-4-oxo-1,4-dihydropyridazine-3-carboxamide] | 0.078 µM | 167.5 to 169.1 °C | 3.68 ± 0.57 µM | 8.12 ± 0.91 µM | 9.12 ± 0.96 µM
COc1cc2c(Oc3ccc(NC(=O)C4(C(=O)Nc5ccc(F)cc5)CC4)cc3F)ccnc2cc1OCCCN1CCOCC1 [Foretinib, reference compound] |  |  | 0.84 ± 0.07 µM |  | 
